Experimental data: ChEMBL document CHEMBL1955827, “Influence of ring size on the cognition-enhancing activity of DM235 and MN19, two potent nootropic drugs” (Bioorg Med Chem Lett, 2012)
Active and inactive are the calls of the source. No cut-off for these calls is given here.

Assays:
Mus musculus [1] = assay: Nootropic activity against scopolamine-induced amnesia in mouse assessed as increase in latency time to enter dark room at 10 mg/kg, ip administered 20 mins prior to test by passive avoidance test (reference value: 91.7 sec); type: functional; settings: route intraperitoneal
Mus musculus [2] = assay: Neurotoxicity in mouse assessed as effect on motor coordination at 10 mg/kg, ip by rotarod test; type: toxicity, organism-based; set-up: dose 10 mg/kg, route intraperitoneal; settings: in vivo
Mus musculus [3] = assay: Neurotoxicity in mouse assessed as effect on spontaneous motility at 10 mg/kg, ip by hole-board test; type: toxicity, organism-based; set-up: dose 10 mg/kg, route intraperitoneal; settings: in vivo
Mus musculus [4] = assay: Neurotoxicity in mouse assessed as effect on gross behaviour at 10 mg/kg, ip by rotarod test; type: toxicity, organism-based; set-up: dose 10 mg/kg, route intraperitoneal; settings: in vivo
Mus musculus [5] = assay: Neurotoxicity in mouse assessed as effect on inspection activity at 10 mg/kg, ip by hole-board test; type: toxicity, organism-based; set-up: dose 10 mg/kg, route intraperitoneal; settings: in vivo
Mus musculus [6] = assay: Nootropic activity against scopolamine-induced amnesia in mouse assessed as increase in latency time to enter dark room at 1 mg/kg, ip administered 20 mins prior to test by passive avoidance test (reference value: 91.7 sec); type: functional; settings: route intraperitoneal
Mus musculus [7] = assay: Neurotoxicity in mouse assessed as effect on motor coordination at 1 mg/kg, ip by rotarod test; type: toxicity, organism-based; set-up: dose 1 mg/kg, route intraperitoneal; settings: in vivo
Mus musculus [8] = assay: Neurotoxicity in mouse assessed as effect on spontaneous motility at 1 mg/kg, ip by hole-board test; type: toxicity, organism-based; set-up: dose 1 mg/kg, route intraperitoneal; settings: in vivo
Mus musculus [9] = assay: Neurotoxicity in mouse assessed as effect on gross behavior at 1 mg/kg, ip by rota-rod test; type: toxicity, organism-based; set-up: dose 1 mg/kg, route intraperitoneal; settings: in vivo
Mus musculus [10] = assay: Neurotoxicity in mouse assessed as effect on inspection activity at 1 mg/kg, ip by hole-board test; type: toxicity, organism-based; set-up: dose 1 mg/kg, route intraperitoneal; settings: in vivo
Mus musculus [11] = assay: Nootropic activity against scopolamine-induced amnesia in mouse assessed as increase in latency period to enter dark room up to 10 mg/kg, ip administered 20 mins prior to test by passive avoidance test (reference value: 91.7 sec); type: functional, organism-based; set-up: dose 10 mg/kg
Mus musculus [12] = assay: Nootropic activity against scopolamine-induced amnesia in mouse assessed as increase in latency time to enter dark room at 0.1 mg/kg, ip administered 20 mins prior to test by passive avoidance test (reference value: 91.7 sec); type: functional; settings: route intraperitoneal
Mus musculus [13] = assay: Neurotoxicity in mouse assessed as effect on motor coordination at 0.1 mg/kg, ip by rotarod test; type: toxicity, organism-based; set-up: dose 0.1 mg/kg, route intraperitoneal; settings: in vivo
Mus musculus [14] = assay: Neurotoxicity in mouse assessed as effect on spontaneous motility at 0.1 mg/kg, ip by hole-board test; type: toxicity, organism-based; set-up: dose 0.1 mg/kg, route intraperitoneal; settings: in vivo
Mus musculus [15] = assay: Neurotoxicity in mouse assessed as effect on gross behavior at 0.1 mg/kg, ip by rota-rod test; type: toxicity, organism-based; set-up: dose 0.1 mg/kg, route intraperitoneal; settings: in vivo
Mus musculus [16] = assay: Neurotoxicity in mouse assessed as effect on inspection activity at 0.1 mg/kg, ip by hole-board test; type: toxicity, organism-based; set-up: dose 0.1 mg/kg, route intraperitoneal; settings: in vivo

| Structure (SMILES) | Time (Mus musculus [6]) [s] | Activity (Mus musculus [7]) | Activity (Mus musculus [8]) | Activity (Mus musculus [9]) | Activity (Mus musculus [10]) | Activity (Mus musculus [11]) | further results |
| --- | --- | --- | --- | --- | --- | --- | --- |
| CCC(=O)N[C@@H]1CCN(S(=O)(=O)c2ccc(F)cc2)C1 | – | – | – | – | – | – | Time (Mus musculus [1]): 69.4 s; Activity (Mus musculus [2]): Non-toxic; Activity (Mus musculus [3]): Non-toxic; Activity (Mus musculus [4]): Non-toxic; Activity (Mus musculus [5]): Non-toxic |
| CCC(=O)NC1CCN(C(=O)c2ccccc2)C1 (configuration not stated) | 45.4 | Non-toxic | Non-toxic | Non-toxic | Non-toxic | – | – |
| CC(=O)NC1CCCN(C(=O)c2ccccc2)CCC1 | – | – | – | – | – | inactive | – |
| CC(=O)N1CCC(NC(=O)c2ccccc2)C1 (configuration not stated) | 48.1 | Non-toxic | Non-toxic | Non-toxic | Non-toxic | – | – |
| CCC(=O)NC1CCCN(C(=O)c2ccccc2)CCC1 | – | – | – | – | – | inactive | – |
| CCC(=O)N1CCCC(NS(=O)(=O)c2ccc(F)cc2)CC1 (configuration not stated) | – | – | – | – | – | – | Time (Mus musculus [1]): 81.4 s |
| CC(=O)NC1CCCN(C(=O)c2ccccc2)CC1 (configuration not stated) | – | – | – | – | – | inactive | – |
| CCC(=O)NC1CCCN(S(=O)(=O)c2ccc(F)cc2)CCC1 | – | – | – | – | – | – | Time (Mus musculus [1]): 72.2 s; Activity (Mus musculus [2]): Non-toxic; Activity (Mus musculus [3]): Non-toxic; Activity (Mus musculus [4]): Non-toxic; Activity (Mus musculus [5]): Non-toxic |
| CC(=O)N1CCCN(S(=O)(=O)c2ccc(F)cc2)CCC1 | – | – | – | – | – | inactive | – |
| CCC(=O)N1CCCN(C(=O)c2ccccc2)CCC1 | – | – | – | – | – | inactive | – |
| CC(=O)N1CCCN(C(=O)c2ccccc2)CCC1 | – | – | – | – | – | inactive | – |
| CC(=O)NC1CCN(S(=O)(=O)c2ccc(F)cc2)C1 (configuration not stated) | 51 | Non-toxic | Non-toxic | Non-toxic | Non-toxic | – | – |
| CCC(=O)NC1CCN(S(=O)(=O)c2ccc(F)cc2)C1 (configuration not stated) | – | – | – | – | – | – | Time (Mus musculus [12]): 48.8 s; Activity (Mus musculus [13]): Non-toxic; Activity (Mus musculus [14]): Non-toxic; Activity (Mus musculus [15]): Non-toxic; Activity (Mus musculus [16]): Non-toxic |
| CC(=O)N1CCCC(NC(=O)c2ccccc2)CC1 (configuration not stated) | 70.4 | Non-toxic | Non-toxic | Non-toxic | Non-toxic | – | – |
| CC(=O)NC1CCCN(S(=O)(=O)c2ccc(F)cc2)CCC1 | 44.8 | Non-toxic | Non-toxic | Non-toxic | Non-toxic | – | – |
| CCC(=O)NC1CN(S(=O)(=O)c2ccc(F)cc2)C1 | – | – | – | – | – | – | Time (Mus musculus [1]): 44.1 s; Activity (Mus musculus [2]): Non-toxic; Activity (Mus musculus [3]): Non-toxic; Activity (Mus musculus [4]): Non-toxic; Activity (Mus musculus [5]): Non-toxic |
